Measurements as given in patent US20250326748A1, “COMPOUNDS AND METHODS FOR MODULATING SPLICING” (REMIX THERAPEUTICS INC., priority 2022, published 2025).
Where a name gives a salt, the structure may show the parent alone. Read-outs that look alike come from different tables or passages of the source.

Columns and labels:
Format in all cases: cell-based, human
HTT mRNA = assay: Splicing RT-qPCR assay, HTT canonical (CJ) and alternative (AJ) junction mRNA; details: for IC50: canonical junction mRNA; for AC50: alternative junction mRNA, read-out: HTT AJ (AC50, increase in AJ mRNA)
In short: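 One-step RT-qPCR on cell lysates quantified CJ and AJ isoforms, normalized to PPIA for A673 or GAPDH/GUSB for K562. Cells were exposed for 24 h at 37° C to 11 concentrations in 3-fold steps up to 10 uM, with DMSO ≤0.25%. A673 were grown in DMEM and K562 in IMDM, both with 10% FBS.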

Target C = assay: HiBiT protein abundance assay, Target C (K562 HiBiT knock-in); details: HiBiT knock-in cells, 24 hours
In short: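 K562 HiBiT knock-in cells (10000/well) in IMDM + 1% FBS were treated for 24 h at 37° C. with a 10-point 3-fold dilution series (top 10 μM final), with DMSO ≤0.25%. Unmodified K562 served as baseline. HiBiT lytic luminescence was normalized to controls, and IC50 was interpolated at 50% from a four-parameter fit.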

HiBiT-tagged MYB protein = assay: HiBiT protein abundance assay, MYB (K562 HiBiT knock-in); details: HiBiT knock-in cells, 24 hours
In short: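 Endogenously HiBiT-tagged K562 knock-in lines treated 24 h at 37 °C with 10-point 3-fold dilutions (top 10 μM final, DMSO ≤0.25%) in IMDM+1% FBS. Lytic Nano-Glo luminescence normalized to DMSO and unmodified K562 controls; four-parameter fit gives 50%-abundance concentration (IC50).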

[1] = Homo sapiens, 24 h, RT-qPCR, A673 or K562 cells, 24 hours treatment, read-out: HTT CJ (IC50, decrease in CJ mRNA)
[2] = Homo sapiens, qPCR panel, read-out: HTT CJ (decrease in CJ mRNA levels, IC50)
[3] = Homo sapiens, RT-qPCR, A673 or K562 cells, 24 hours treatment

Row | IC50 (HTT mRNA; [1]) [nM] | IC50 (HTT mRNA; [2]) [nM] | IC50 (Target C) [nM] | IC50 (HiBiT-tagged MYB protein) [nM] | IC50 (HTT mRNA; RT-qPCR, A673 or K562 cells, 24 hours treatment, read-out: HTT CJ (IC50, decrease in CJ mRNA)) [nM] | IC50 (HTT mRNA; qPCR panel, read-out: HTT CJ (decrease in CJ mRNA levels, IC50)) [nM] | SMILES | AC50 (HTT mRNA; [3]) [nM] | AC50 (HTT mRNA; RT-qPCR, A673 or K562 cells, 24 hours treatment) [nM]
1 | 1000 to 10000 | 1000 to 10000 | 1000 to 10000 | 100 to 1000 |  |  | C[C@@H]1CN(c2cnc3nc(-c4cc(F)c5nn(C)cc5c4)cc(Cl)c3c2)C[C@@H](C)N1 [Compound 251] | 1000 to 10000 | 
2 | 100 to 1000 | 100 to 1000 | 100 to 1000 | < 100 |  |  | CN[C@@H]1CCN(c2cnc3nc(-c4cc(F)c5nc(C)cn5c4)ncc3c2)C1 [Compound 202, (3R)-1-(2-{8-fluoro-2-methylimidazo[1,2-a]pyridin-6-yl}pyrido[2,3-d]pyrimidin-6-yl)-N-methylpyrrolidin-3-amine] | 100 to 1000 | 
3 | 100 to 1000 | 100 to 1000 | 100 to 1000 | < 100 |  |  | CNC1CCN(c2cnc3nc(-c4cc5cn(C)nc5c(C)c4O)cc(Cl)c3n2)C1 (centres unmarked) [Compound 193, 5-{8-chloro-2-[3-(methylamino)355pyrrolidine-1-yl]pyrido[2,3-b]pyrazin-6-yl}-2,7-dimethylindazol-6-ol] | 100 to 1000 | 
4 | < 100 | < 100 | 100 to 1000 | < 100 |  |  | COc1nc(-c2cc3cn(C)nc3c(F)c2O)nc2ncc(N3C[C@@H](C)N[C@@H](C)C3)cc12 [Compound 218] | 100 to 1000 | 
5 | < 100 | < 100 | 100 to 1000 | < 100 |  |  | COc1nc(-c2cc3cn(C)nc3c(F)c2O)nc2ncc(N3CCC(N(C)C)CC3)cc12 [Compound 219, 5-{6-[4-(dimethylamino)piperidin-1-yl]-4-methoxypyrido[2,3-d]pyrimidin-2-yl}-7-fluoro-2-methylindazol-6-ol] | 100 to 1000 | 
6 | < 100 | < 100 | < 100 | < 100 |  |  | Cc1nc2c(C)c(O)c(-c3cnc4cc(N5CCC(NC6CC6)C5)ccc4n3)cc2o1 (centres unmarked) [Compound 182, 6-[6-[3-(cyclopropylamino)pyrrolidin-1-yl]quinoxalin-2-yl]-2,4-dimethyl-1,3-benzoxazol-5-ol] | < 100 | 
7 | < 100 | < 100 | 100 to 1000 | < 100 |  |  | Cn1cc2cc(-c3cnc4cc(N5CCC(NC6CC6)C5)ccc4n3)c(O)c(F)c2n1 (centres unmarked) [Compound 175, 5-[6-[3-(cyclopropylamino)pyrrolidin-1-yl]quinoxalin-2-yl]-7-fluoro-2-methyl-indazol-6-ol] | < 100 | 
8 | < 100 | < 100 | 100 to 1000 | < 100 |  |  | CN(C)[C@@H]1CCN(c2cnc3nc(-c4cc5cn(C)nc5c(F)c4O)cc(Cl)c3c2)C1 [Compound 220] | 100 to 1000 | 
9 | 100 to 1000 | 100 to 1000 | 100 to 1000 | < 100 |  |  | CNC1CCN(c2cnc3nc(-c4cc5cn(C)nc5cc4O)cc(Cl)c3c2)C1 (centres unmarked) [Compound 213, 5-{4-chloro-6-[3-(methylamino)370pyrrolidine-1-yl]-1,8-naphthyridin-2-yl}-2-methylindazol-6-ol] | 100 to 1000 | 
10 | 100 to 1000 | 100 to 1000 | 100 to 1000 | < 100 |  |  | Cn1cc2cc(-c3cc(Cl)c4cc(N5CCNCC5)cnc4n3)c(O)cc2n1 [Compound 102, 5-[4-chloro-6-(piperazin-1-yl)-1,8-naphthyridin-2-yl]-2-methylindazol-6-ol] | 100 to 1000 | 
11 | 1000 to 10000 | 1000 to 10000 | 1000 to 10000 | 100 to 1000 |  |  | C[C@@H]1CN(c2cnc3nc(-c4cc5cn(C)nc5cc4O)cc(Cl)c3c2)C[C@@H](C)N1 [Compound 243, 5-{4-chloro-6-[(3R,5R)-3,5-dimethylpiperazin-1-yl]-1,8-naphthyridin-2-yl}-2-methylindazol-6-ol hydrochloride] | 1000 to 10000 | 
12 | < 100 | < 100 | 100 to 1000 | < 100 |  |  | C[C@@H]1CN(c2cnc3nc(-c4cc5cn(C)nc5c(F)c4O)ccc3c2)C[C@H](C)N1 [Compound 206] | 100 to 1000 | 
13 | < 100 | < 100 | 100 to 1000 | < 100 |  |  | CN(C)[C@H]1CCN(c2cnc3nc(-c4cc5cn(C)nc5c(F)c4O)cc(Cl)c3c2)C1 [Compound 221] | 100 to 1000 | 
14 | 1000 to 10000 | 1000 to 10000 | 1000 to 10000 | 1000 to 10000 |  |  | CNC1CCN(c2cnc3nc(-c4cc5cn(C)nc5c(C)c4O)cc(OC)c3n2)C1 (centres unmarked) [Compound 194, 5-{8-methoxy-2-[3-(methylamino)360pyrrolidine-1-yl]pyrido[2,3-b]pyrazin-6-yl}-2,7-dimethylindazol-6-ol] | > 10000 | 
15 |  |  | 100 to 1000 | < 100 | < 100 | < 100 | Cc1c(O)c(-c2cc(Cl)c3cc(N4C[C@@H](C)N[C@@H](C)C4)cnc3n2)cc2cn(C)nc12 [Compound 207, 5-{4-chloro-6-[(3R,5S)-3,5-dimethylpiperazin-1-yl]-1,8-naphthyridin-2-yl}-2,7-dimethylindazol-6-ol] |  | 100 to 1000
16 | 100 to 1000 | 100 to 1000 | 1000 to 10000 | 100 to 1000 |  |  | CC1CN(c2cnc3nc(-c4cc(F)c5nn(C)cc5c4)cc(Cl)c3c2)CCN1 (centres unmarked) [Compound 203, 4-chloro-2-(7-fluoro-2-methyl-2H-indazol-5-yl)-6-(3-methylpiperazin-1-yl)-1,8-naphthyridine 2,2,2-trifluoroacetate] | 1000 to 10000 | 
17 | > 10000 | < 100 | 1000 to 10000 | > 10000 |  |  | Cc1c(O)c(-c2cc(-c3nnc[nH]3)c3cc(N4C[C@@H](C)N[C@@H](C)C4)cnc3n2)cc2cn(C)nc12 [Compound 261, 5-{6-[(3R,5S)-3,5-dimethylpiperazin-1-yl]-4-(4H-1,2,4-triazol-3-yl)-1,8-naphthyridin-2-yl}-2,7-dimethylindazol-6-ol] | > 10000 | 
18 | 1000 to 10000 | < 100 | 1000 to 10000 | 100 to 1000 |  |  | Cc1c(O)c(-c2ccc3nc(N4CCC(N(C)C)CC4)cnc3n2)cc2cn(C)nc12 [Compound 198] | > 10000 | 
19 | 1000 to 10000 | 1000 to 10000 | 1000 to 10000 | 100 to 1000 |  |  | C[C@@H]1CN(c2cnc3nc(-c4cc(F)c5nn(C)cc5c4)cc(Cl)c3c2)C[C@H](C)N1 [Compound 215] | 1000 to 10000 | 
20 | < 100 | < 100 | < 100 | < 100 |  |  | Cn1cc2cc(-c3cnc4cc(N5CC[C@@H](NC6CC6)C5)ccc4n3)c(O)c(F)c2n1 [Compound 177, 5-[6-[(3R)-3-(cyclopropylamino)318quinoxaline-1-yl]318quinoxaline-2-yl]-7-fluoro-2-methyl-indazol-6-ol] | < 100 | 
21 | 1000 to 10000 | 1000 to 10000 | 1000 to 10000 | < 100 |  |  | Cn1cc2cc(-c3cnc4nc(N5CCNCC5)cc(Cl)c4c3)cc(F)c2n1 [Compound 101, 4-chloro-6-(7-fluoro-2-methyl-2H-indazol-5-yl)-2-(piperazin-1-yl)-1,8-naphthyridine] | 1000 to 10000 | 
22 | 1000 to 10000 | 1000 to 10000 | 1000 to 10000 | 100 to 1000 |  |  | Cn1cc2cc(-c3cc(Cl)c4cc(N5CCNC(C6CC6)C5)cnc4n3)cc(F)c2n1 (centres unmarked) [Compound 209, 4-chloro-6-(3-cyclopropylpiperazin-1-yl)-2-(7-fluoro-2-methylindazol-5-yl)-1,8-naphthyridine] | 1000 to 10000 | 
